Source: patent publication US20070167353A1, “PRODRUG COMPOSITION” (priority 2003, published 2007)

Legend:
[1] = system: vaccinia virus; assay: microbe, parasite or virus in culture; type: cell-based; settings: for IC50: HFF cells, 3 days, read-out: Vaccinia Plaque Reduction (IC50)
[2] = Intestinal absorption after direct duodenal injection in anesthetized rats, plasma by LC/MS/MS; settings: rat, duodenal injection
Procedure: The systemic plasma profiles of the prodrug, Ara A, and its main metabolite, Ara H are then monitored by removing plasma from a jugular vein cannula over a 4 hour period and assaying by LC/MS/MS assay.
Animals were dosed with Ara A at a level of 1.5 mg/rat via direct duodenal injection into anesthetized rats (n=2 per compound). Plasma samples were taken from the jugular vein at 0, 1, 2, and 4 hours from the jugular vein and were assayed for Ara A (▪), and Ara H (♦) by LC/MS/MS.
Animals were dosed with 5′-O-L isoleucyl Ara A prodrug at a level of 2.7 mg/rat via direct duodenal injection into anesthetized rats (n=3 per compound). Plasma samples were taken from the jugular vein at 0, 0.5, 1, 2, and 4 hours from the jugular vein and were assayed for prodrug (□), Ara A (▪), and Ara H (♦) by LC/MS/MS.
FIG. 6 is a graph showing mean plasma profiles of Ara A, Ara H, and 5′-O-D Isoleucyl Ara A after administration of 5′-O-D Isoleucyl Ara A into the duodenum of a rat. Animals were dosed with 5′-O-D Isoleucyl Ara A prodrug at a level of 2.7 mg/rat via direct duodenal injection into anesthetized rats (n=2). Plasma samples were taken from the jugular vein at 0, 0.5, 1, 2, and 4 hours from the jugular vein and were assayed for prodrug (□), Ara A (▪), and Ara H (♦) by LC/MS/MS.
FIG. 7 is a graph showing mean plasma profiles of Ara A, Ara H, and 5′-O-L Valyl Ara A after administration of 5′-O-L Valyl Ara A into the duodenum of a rat. Animals were dosed with 5′-O-L Valyl Ara A prodrug at a level of 3 mg/rat via direct duodenal injection into anesthetized rats (n=2). Plasma samples were taken from the jugular vein at 0, 0.5, 1, 2, and 4 hours from the jugular vein and were assayed for prodrug (□), Ara A (▪), and Ara H (♦) by LC/MS/MS.
FIG. 8 is a graph showing mean plasma profiles of Ara A, Ara H, and 5′-O-D Valyl Ara A after administration of 5′-O-D Valyl Ara A into the duodenum of a rat. Animals were dosed with 5′-O-D Valyl Ara A prodrug at a level of 3.0 mg/rat via direct duodenal injection into anesthetized rats (n=3). Plasma samples were taken from the jugular vein at 0, 0.5, 1, 2, and 4 hours from the jugular vein and were assayed for prodrug (□), Ara A (▪), and ara H (♦) by LC/MS/MS.
FIG. 9 is a graph showing mean plasma profiles of Ara A, Ara H, and 5′-O-Glycyl Ara A after administration of 5′-O-Glycyl Ara A into the duodenum of a rat. Animals were dosed with 5′-O-Glycyl Ara A prodrug at a level of 3.0 mg/rat via direct duodenal injection into anesthetized rats (n=2). Plasma samples were taken from the jugular vein at 0, 0.5, 1, 2, and 4 hours from the jugular vein and were assayed for prodrug (□), Ara A (▪), and Ara H (♦) by LC/MS/MS.

[3] = system: KB cell; assay: KB cell cytotoxicity; settings: read-out: KB cell cytotoxicity (IC50)
[4] = biological target: T1, biphenyl hydrolase-like enzyme (BPHL) (Homo sapiens, UniProt Q86WA6); type: biochemical
T1 sequence (Q86WA6 38-291): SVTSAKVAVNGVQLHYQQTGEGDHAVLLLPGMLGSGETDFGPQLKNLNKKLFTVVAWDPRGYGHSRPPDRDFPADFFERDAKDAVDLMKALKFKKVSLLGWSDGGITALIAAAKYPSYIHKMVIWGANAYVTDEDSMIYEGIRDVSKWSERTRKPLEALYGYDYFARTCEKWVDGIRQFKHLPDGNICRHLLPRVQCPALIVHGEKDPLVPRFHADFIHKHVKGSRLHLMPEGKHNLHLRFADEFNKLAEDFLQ

[5] = biological target: T2, HPEPT1 (Homo sapiens, UniProt P46059); settings: for Uptake (hPepT1): HeLa cells overexpressing HPEPT1, 50 micromolar, pH 6.0, 45 minutes; for hPepT1/Control: ratio of uptake in hPepT1 cells versus control cells
T2 sequence (P46059 1-708): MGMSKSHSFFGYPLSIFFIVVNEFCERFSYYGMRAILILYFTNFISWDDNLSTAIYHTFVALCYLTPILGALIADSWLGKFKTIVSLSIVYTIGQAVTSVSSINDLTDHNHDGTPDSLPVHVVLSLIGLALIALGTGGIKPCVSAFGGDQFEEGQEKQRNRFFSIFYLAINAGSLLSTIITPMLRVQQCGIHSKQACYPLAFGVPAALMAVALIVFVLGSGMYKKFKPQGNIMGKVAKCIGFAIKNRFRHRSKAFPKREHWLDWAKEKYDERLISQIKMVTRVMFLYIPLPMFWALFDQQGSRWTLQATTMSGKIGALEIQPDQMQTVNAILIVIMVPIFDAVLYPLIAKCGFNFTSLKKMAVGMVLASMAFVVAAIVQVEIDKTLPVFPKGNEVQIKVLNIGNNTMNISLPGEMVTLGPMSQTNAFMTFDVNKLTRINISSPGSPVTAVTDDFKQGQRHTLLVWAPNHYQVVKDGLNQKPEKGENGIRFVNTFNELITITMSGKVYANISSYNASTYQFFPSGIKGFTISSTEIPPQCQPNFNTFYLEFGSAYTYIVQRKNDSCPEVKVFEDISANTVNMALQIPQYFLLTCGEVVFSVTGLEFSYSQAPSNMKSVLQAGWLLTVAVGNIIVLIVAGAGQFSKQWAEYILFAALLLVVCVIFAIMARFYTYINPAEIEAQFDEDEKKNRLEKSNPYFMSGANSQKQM

[6] = biological target: T2, HPEPT1; assay: Inhibition of radiolabelled Gly-Sar uptake in DC5 cells overexpressing HPEPT1; type: cell-based; design: expressed in transfected cells; host or cells: HeLa cells overexpressing hPEPT1 (called 'HPEPT1 infected cells'); settings: inhibition of Gly-Sar uptake, DC5 cells overexpressing HPEPT1, 10 min, 37° C.; read-out: DC5 IC50
Procedure: Amino acid prodrugs are tested for their interaction with the dipeptide transporter, HPEPT1, using tissue culture cells that are engineered to overexpress HPEPT1. In this example, the cells that overexpress HPEPT1, termed DC5, are a human meduloblastoma cell line that is stably transfected with a eukaryotic expression vector encoding HPEPT1. […] DC5 cells are plated at a density of 12,000 cells/well in 96-well tissue culture plates and allowed to grow for 2 days. The cells are washed once with 200 microliters of uptake buffer and aspirated. The plates are cooled to 4° C. and 25 ul of uptake buffer containing 125 nanomoles Gly-Sar (at a specific activity of 1 microcurie/micromole) is added. The uptake buffer also contains the prodrugs to be tested at concentrations ranging from 10 micromolar to 20 millimolar. The assay is initiated by placing the plate in a shaking water bath at 37° C. and is terminated after 10 min by rapid washing with multiple changes of 4° C. phosphate buffered saline (PBS). The radioactive Gly-Sar peptide that is transported by the hpept1 is extracted from the cell layer with 200 ul of a one to one mixture of methanol and water and is counted in 4 ml of CytoScint ES™ scintillation cocktail (ICN). The data are plotted as % Gly-Sar uptake of control (no competitive substrate) versus the competitive substrate concentration. […] Typically, values that are below 10 mM indicate that the drug interacts with transporter.

[7] = biological target: T3, human dipeptide transporter, hPept1 (Homo sapiens, UniProt P46059)
T3 sequence (P46059 1-708): T2 sequence (P46059 1-708)

[8] = not given; remark: listed apart in the source
[9] = not given; remark: listed apart in the source

SMILES | % of Control (VACV) [4] [%] | Uptake (hPepT1) [5] [nmole/mg/45 min] | hPepT1/Control [5] | IC50 [6] [µM] | further results
CC[C@@H](C)[C@@H](N)C(=O)OC[C@H]1O[C@@H](n2cnc3c(N)ncnc32)[C@@H](O)[C@@H]1O [5′-O-D-isoleucyl Ara A] | – | – | – | – | IC50 [1]: 3 µM; plasma Ara A levels after dosing (in words) [2]: increased levels of plasma Ara A; IC50 [3]: > 100 µM
CC(C)C(N)C(=O)OC[C@H]1O[C@@H](n2cc(F)c(=O)[nH]c2=O)C[C@@H]1OC(=O)C(N)C(C)C (stereo partly drawn) [3′,5′-di-O-valyl-Floxuridine] | 1.7 | 2.78 ± 0.37 | 5.18 | 1600 | –
N[C@@H](Cc1ccccc1)C(=O)OC[C@H]1O[C@@H](n2cc(F)c(=O)[nH]c2=O)C[C@@H]1OC(=O)[C@@H](N)Cc1ccccc1 [3′,5′-di-O-phenylalanyl-Floxuridine] | 8.9 | 2.96 ± 0.13 | 9.53 | 2780 | –
NC(CC(=O)O)C(=O)OCC1OC(n2cc(F)c(=O)[nH]c2=O)CC1OC(=O)C(N)CC(=O)O (stereo not drawn) [3′,5′-di-O-aspartyl-Floxuridine] | 0.0 | – | – | 9550 | –
CC(C)[C@H](N)C(=O)O[C@H]1C[C@H](n2cc(F)c(=O)[nH]c2=O)O[C@@H]1CO [3′-O-valyl-Floxuridine] | 3.3 | 1.35 ± 0.13 | 1.03 | 980 | –
NCCCC[C@H](N)C(=O)O[C@H]1C[C@H](n2cc(F)c(=O)[nH]c2=O)O[C@@H]1CO [3′ lysyl monoester Floxuridine] | 7.3 | – | – | – | –
C[C@H](N)C(=O)NCC(=O)OC[C@H]1O[C@@H](n2cnc3c(N)ncnc32)[C@@H](O)[C@@H]1O [5′-O-L-alagly Ara A] | – | – | – | – | hPepT1/Control [7]: 1.48
N[C@@H](Cc1ccccc1)C(=O)OC[C@H]1O[C@@H](n2cc(F)c(=O)[nH]c2=O)C[C@@H]1O [5′-O-phenylalanyl-Floxuridine] | 52.8 | 1.58 ± 0.20 | 12.34 | 3700 | –
CC(C)[C@H](N)C(=O)OC[C@H]1O[C@@H](n2cc(F)c(=O)[nH]c2=O)C[C@@H]1O [5′-O-valyl-Floxuridine] | 91.1 | 3.42 ± 0.09 | 19.24 | 1170 | –
NCC(=O)OC[C@H]1O[C@@H](n2cnc3c(N)ncnc32)[C@@H](O)[C@@H]1O [5′-O-glycyl Ara A] | – | – | – | – | IC50 [1]: 15 µM; plasma Ara A levels after dosing (in words) [2]: relatively low plasma levels; prodrug absorption / prodrug concentrations in systemic plasma (in words) [2]: limited intestinal absorption of the prodrug; IC50 [3]: > 100 µM
NCCCC[C@H](N)C(=O)OC[C@H]1O[C@@H](n2cc(F)c(=O)[nH]c2=O)C[C@@H]1O [5′ lysyl monoester Floxuridine] | 8.1 | – | – | – | –
NC(Cc1ccccc1)C(=O)O[C@H]1C[C@H](n2cc(F)c(=O)[nH]c2=O)O[C@@H]1CO (stereo partly drawn) [3′-O-phenylalanyl-Floxuridine] | 24.4 | 0.83 ± 0.19 | 2.56 | 3480 | –
NCCCCC(N)C(=O)OCC1OC(n2cc(F)c(=O)[nH]c2=O)CC1OC(=O)C(N)CCCCN (stereo not drawn) [3′,5′ lysyl diester Floxuridine] | 0.0 | – | – | – | –
NC(CC(=O)O)C(=O)OCC1OC(n2cc(F)c(=O)[nH]c2=O)CC1O (stereo not drawn) [5′-O-aspartyl-Floxuridine] | 2.3 | – | – | 8300 | –
CC[C@H](C)[C@H](N)C(=O)OC[C@H]1O[C@@H](n2ccc(N)nc2=O)C(F)(F)[C@@H]1O [5′-O-L-isoleucyl gemcitabine] | – | 1.22 ± 0.05 | 5.64 | 610 | t1/2 Buffer pH 7.4: 452.0 ± 9.6 min; t1/2 Human plasma [8]: 1.65 ± 0.0267 h; t1/2 Caco-2 cell homogenates [9]: 1.26 ± 0.0467 h
NC(CC(=O)O)C(=O)OC1CC(n2cc(F)c(=O)[nH]c2=O)OC1CO (stereo not drawn) [3′-O-aspartyl-Floxuridine] | 2.0 | – | – | 10500 | –
OC[C@H]1O[C@@H](n2cnc3c2N=CNC[C@H]3O)C[C@@H]1O [2′-deoxycoformycin, reference compound] | – | – | – | – | effect on virus replication ([1]; 2′-deoxycoformycin alone at 1 micromolar): no effect on virus replication
